Columns and labels:
[1] = biological target: Voltage-dependent L-type calcium channel subunit alpha-1C (Rattus norvegicus, UniProt P22002); format: functional
[2] = biological target: T1, 5-hydroxytryptamine receptor 1A (Homo sapiens, UniProt P08908); format: functional, cell-based
T1 sequence (P08908 whole entry): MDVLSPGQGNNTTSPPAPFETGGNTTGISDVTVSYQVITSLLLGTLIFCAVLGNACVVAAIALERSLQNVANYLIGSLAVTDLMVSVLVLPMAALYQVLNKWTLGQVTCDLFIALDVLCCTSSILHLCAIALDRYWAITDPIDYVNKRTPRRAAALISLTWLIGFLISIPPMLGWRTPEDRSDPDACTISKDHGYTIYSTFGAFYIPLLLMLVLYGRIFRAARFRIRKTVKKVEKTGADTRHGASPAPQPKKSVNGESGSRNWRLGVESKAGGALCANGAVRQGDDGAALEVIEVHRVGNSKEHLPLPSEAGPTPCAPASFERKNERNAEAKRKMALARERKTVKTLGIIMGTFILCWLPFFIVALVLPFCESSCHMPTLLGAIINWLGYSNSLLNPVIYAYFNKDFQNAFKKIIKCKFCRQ

Vasopressin V1a receptor = Vasopressin V1a receptor (Homo sapiens, UniProt P37288)
Adenosine receptor A1 [3] = biological target: T2, Adenosine receptor A1 (Homo sapiens, UniProt P30542)
T2 sequence (P30542 whole entry): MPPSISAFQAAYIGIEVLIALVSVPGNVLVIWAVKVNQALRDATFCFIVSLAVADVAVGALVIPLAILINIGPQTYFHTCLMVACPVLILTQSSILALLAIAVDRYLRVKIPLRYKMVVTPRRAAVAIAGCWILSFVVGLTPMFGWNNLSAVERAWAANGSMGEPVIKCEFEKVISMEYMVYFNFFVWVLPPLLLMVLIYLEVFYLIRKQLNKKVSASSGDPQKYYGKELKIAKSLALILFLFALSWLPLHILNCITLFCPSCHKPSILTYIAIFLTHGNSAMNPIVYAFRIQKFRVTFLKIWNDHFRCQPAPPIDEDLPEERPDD

[4] = biological target: T3, Muscarinic acetylcholine receptor M2 (Homo sapiens, UniProt P08172); format: functional, cell-based
T3 sequence (P08172 whole entry): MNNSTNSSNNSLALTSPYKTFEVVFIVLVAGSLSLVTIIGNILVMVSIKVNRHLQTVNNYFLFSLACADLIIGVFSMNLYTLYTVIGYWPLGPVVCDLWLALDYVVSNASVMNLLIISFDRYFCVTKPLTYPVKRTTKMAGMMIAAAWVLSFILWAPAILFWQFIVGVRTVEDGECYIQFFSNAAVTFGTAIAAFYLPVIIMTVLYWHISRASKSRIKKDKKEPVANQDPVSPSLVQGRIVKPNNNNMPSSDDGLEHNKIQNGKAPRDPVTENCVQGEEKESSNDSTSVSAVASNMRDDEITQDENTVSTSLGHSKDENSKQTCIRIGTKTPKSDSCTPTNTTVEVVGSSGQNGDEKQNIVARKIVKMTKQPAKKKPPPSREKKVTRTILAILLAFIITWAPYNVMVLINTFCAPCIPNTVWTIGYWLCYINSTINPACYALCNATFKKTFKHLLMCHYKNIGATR

Cannabinoid receptor 1 = Cannabinoid receptor 1 (Homo sapiens, UniProt P21554)
Endothelin-1 receptor = biological target: T4, Endothelin-1 receptor (Homo sapiens, UniProt P25101)
T4 sequence (P25101 whole entry): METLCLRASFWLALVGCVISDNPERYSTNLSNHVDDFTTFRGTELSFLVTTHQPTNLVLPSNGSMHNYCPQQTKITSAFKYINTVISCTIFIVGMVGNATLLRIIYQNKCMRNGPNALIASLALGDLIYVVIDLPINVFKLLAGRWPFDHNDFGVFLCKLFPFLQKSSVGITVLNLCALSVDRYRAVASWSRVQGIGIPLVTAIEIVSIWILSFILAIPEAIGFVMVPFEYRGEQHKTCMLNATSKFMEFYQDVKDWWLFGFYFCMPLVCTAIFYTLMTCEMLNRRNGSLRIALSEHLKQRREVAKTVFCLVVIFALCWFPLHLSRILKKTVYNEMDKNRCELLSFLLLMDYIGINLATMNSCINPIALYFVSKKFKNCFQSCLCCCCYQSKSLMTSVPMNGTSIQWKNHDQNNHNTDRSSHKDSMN

[5] = biological target: T5, Muscarinic acetylcholine receptor M1 (Homo sapiens, UniProt P11229); format: functional, cell-based
T5 sequence (P11229 whole entry): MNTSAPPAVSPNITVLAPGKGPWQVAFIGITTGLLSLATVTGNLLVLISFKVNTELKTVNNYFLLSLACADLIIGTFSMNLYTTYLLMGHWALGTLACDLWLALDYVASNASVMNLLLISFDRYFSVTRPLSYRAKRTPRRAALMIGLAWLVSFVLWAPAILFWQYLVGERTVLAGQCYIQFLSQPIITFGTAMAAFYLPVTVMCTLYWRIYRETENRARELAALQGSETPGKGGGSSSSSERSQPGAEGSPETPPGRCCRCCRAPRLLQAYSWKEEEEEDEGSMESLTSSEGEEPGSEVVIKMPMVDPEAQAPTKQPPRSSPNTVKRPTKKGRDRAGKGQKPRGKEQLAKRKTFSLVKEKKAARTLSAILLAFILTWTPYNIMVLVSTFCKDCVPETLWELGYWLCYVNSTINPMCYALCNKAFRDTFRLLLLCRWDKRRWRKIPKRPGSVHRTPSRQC

[6] = biological target: T6, Alpha-1A adrenergic receptor (Homo sapiens, UniProt P35348); format: functional, cell-based
T6 sequence (P35348 whole entry): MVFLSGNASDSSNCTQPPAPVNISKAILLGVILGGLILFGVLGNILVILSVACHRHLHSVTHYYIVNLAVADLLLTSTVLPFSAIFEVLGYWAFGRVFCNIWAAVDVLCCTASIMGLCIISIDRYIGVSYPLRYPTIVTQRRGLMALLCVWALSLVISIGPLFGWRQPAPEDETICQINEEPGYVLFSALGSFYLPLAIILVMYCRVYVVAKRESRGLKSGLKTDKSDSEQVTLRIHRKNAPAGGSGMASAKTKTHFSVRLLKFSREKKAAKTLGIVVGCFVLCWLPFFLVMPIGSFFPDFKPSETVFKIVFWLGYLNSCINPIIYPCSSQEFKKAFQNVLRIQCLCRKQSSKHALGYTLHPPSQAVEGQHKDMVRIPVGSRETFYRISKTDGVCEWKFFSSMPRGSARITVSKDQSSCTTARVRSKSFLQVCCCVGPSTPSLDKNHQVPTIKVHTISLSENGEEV

Adenosine receptor A1 [7] = biological target: T2, Adenosine receptor A1; remark: listed apart in the source
Note: assay procedure not described here.

Chain of Vasopressin V1a receptor (P37288 whole entry): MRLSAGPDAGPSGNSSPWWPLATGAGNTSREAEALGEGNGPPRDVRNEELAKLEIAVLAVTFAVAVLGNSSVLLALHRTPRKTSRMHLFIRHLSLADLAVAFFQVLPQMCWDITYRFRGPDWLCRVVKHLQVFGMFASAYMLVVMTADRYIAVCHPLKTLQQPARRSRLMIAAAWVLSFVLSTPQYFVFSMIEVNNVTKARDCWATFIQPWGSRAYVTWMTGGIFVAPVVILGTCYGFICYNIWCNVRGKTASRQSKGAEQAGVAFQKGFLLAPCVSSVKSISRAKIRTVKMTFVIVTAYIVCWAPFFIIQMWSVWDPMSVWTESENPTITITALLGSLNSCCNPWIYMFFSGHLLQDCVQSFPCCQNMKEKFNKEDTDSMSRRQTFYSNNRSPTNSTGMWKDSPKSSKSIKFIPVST
Chain of Voltage-dependent L-type calcium channel subunit alpha-1C (P22002 whole entry): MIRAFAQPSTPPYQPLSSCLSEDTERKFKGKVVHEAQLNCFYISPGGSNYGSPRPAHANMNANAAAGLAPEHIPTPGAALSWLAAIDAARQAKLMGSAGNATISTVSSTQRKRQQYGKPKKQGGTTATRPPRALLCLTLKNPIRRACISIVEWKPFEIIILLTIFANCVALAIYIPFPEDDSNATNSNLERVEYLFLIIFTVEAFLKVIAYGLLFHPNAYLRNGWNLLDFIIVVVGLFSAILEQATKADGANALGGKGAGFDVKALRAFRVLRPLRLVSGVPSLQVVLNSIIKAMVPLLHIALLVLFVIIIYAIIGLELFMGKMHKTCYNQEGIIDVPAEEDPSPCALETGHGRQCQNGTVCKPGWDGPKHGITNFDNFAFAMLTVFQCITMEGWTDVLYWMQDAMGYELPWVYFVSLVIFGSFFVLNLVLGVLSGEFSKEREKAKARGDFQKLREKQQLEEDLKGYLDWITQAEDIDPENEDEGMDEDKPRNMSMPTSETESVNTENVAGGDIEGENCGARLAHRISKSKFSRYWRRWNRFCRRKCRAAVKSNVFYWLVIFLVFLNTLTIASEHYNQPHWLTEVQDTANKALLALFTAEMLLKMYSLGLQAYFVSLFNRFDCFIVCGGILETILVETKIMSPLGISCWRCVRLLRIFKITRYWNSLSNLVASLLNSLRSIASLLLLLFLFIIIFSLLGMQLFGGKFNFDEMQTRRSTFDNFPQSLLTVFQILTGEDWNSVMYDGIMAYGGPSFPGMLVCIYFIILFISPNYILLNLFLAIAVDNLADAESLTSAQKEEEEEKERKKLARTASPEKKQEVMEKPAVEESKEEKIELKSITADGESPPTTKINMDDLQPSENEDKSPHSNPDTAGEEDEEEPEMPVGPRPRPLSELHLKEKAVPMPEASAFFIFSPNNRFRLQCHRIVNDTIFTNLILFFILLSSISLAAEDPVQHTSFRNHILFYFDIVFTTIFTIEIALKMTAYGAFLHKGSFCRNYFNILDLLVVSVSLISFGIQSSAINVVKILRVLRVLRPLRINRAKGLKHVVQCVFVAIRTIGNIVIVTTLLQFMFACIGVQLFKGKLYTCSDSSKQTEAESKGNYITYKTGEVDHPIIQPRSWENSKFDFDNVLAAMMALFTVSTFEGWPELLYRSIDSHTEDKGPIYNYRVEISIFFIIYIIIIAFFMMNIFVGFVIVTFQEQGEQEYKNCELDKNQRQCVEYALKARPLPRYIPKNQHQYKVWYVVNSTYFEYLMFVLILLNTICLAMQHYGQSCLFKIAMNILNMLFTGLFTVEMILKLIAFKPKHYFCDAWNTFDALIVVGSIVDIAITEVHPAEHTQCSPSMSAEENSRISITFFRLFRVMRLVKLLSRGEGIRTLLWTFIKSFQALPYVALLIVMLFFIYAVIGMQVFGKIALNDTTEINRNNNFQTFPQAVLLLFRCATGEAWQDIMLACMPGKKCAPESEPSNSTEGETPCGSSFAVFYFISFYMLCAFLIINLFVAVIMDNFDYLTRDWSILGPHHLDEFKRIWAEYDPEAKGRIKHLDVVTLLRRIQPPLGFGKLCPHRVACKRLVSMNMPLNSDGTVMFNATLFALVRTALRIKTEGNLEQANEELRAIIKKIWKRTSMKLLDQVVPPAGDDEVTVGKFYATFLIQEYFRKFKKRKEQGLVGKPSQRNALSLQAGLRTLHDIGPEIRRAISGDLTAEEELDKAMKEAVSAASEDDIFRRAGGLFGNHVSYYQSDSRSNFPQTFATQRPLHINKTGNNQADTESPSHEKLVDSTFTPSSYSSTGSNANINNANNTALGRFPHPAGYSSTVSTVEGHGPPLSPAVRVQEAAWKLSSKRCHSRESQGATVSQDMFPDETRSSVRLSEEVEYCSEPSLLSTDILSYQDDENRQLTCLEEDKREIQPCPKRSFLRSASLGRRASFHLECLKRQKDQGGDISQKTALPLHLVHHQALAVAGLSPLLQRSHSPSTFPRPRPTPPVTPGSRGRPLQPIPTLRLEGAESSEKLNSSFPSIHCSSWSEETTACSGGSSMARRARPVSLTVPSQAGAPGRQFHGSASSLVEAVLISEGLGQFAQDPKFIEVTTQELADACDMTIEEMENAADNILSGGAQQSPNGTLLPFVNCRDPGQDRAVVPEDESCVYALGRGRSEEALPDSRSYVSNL
Chain of Cannabinoid receptor 1 (P21554 whole entry): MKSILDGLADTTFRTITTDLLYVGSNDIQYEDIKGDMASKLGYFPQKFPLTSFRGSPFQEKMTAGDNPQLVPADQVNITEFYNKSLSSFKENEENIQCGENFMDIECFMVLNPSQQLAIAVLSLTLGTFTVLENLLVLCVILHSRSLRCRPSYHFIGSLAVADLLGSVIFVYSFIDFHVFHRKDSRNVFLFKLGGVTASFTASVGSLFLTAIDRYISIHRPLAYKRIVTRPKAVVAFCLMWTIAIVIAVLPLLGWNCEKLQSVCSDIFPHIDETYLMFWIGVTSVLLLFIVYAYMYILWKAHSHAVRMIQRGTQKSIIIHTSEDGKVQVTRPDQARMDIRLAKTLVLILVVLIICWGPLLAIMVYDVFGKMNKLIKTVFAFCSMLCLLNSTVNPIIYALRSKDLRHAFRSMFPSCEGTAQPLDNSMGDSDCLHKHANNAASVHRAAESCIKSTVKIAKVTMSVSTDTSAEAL

Row | SMILES | AC50 [1] [µM] | AC50 [2] [µM] | AC50 (Adenosine receptor A1 [3]) [µM] | AC50 [4] [µM] | AC50 (Cannabinoid receptor 1) [µM] | AC50 [5] [µM] | other results
1 | C[C@]12CC[C@H](O)CC1=CC[C@@H]1[C@@H]2CC[C@]2(C)C(c3cccnc3)=CC[C@@H]12 [ABIRATERONE] | > 10 | > 10 | > 30 | > 10 | > 10 |  | AC50 (Vasopressin V1a receptor): > 30 µM
2 | CCn1cc(C(=O)O)c(=O)c2cc(F)c(N3CCNCC3)nc21 [ENOXACIN] | > 10 | > 10 | > 30 | > 10 | > 10 |  | AC50 (Endothelin-1 receptor): 11.3 µM; AC50 (Vasopressin V1a receptor): > 10 µM
3 | c1ccc2c(CC3=NCCN3)cccc2c1 [NAPHAZOLINE] |  |  |  |  |  | > 30 | AC50 [6]: 0.0006 µM
4 | CN(C)c1cc(NC(=O)CNC(C)(C)C)c(O)c2c1C[C@H]1C[C@H]3[C@H](N(C)C)C(O)=C(C(N)=O)C(=O)[C@@]3(O)C(O)=C1C2=O [TIGECYCLINE] | > 30 |  | > 30 | > 30 | > 30 |  | AC50 (Vasopressin V1a receptor): > 30 µM
5 | NS(=O)(=O)c1cc(C2(O)NC(=O)c3ccccc32)ccc1Cl (centres undefined) [CHLORTHALIDONE] | > 10 | > 10 | > 10 | > 10 | > 10 |  | 
6 | COc1ccc2c(c1)[C@]13CCCC[C@@H]1[C@H](C2)N(C)CC3 [DEXTROMETHORPHAN] | > 10 | > 10 | > 30 | > 10 | > 10 |  | AC50 (Endothelin-1 receptor): > 30 µM; AC50 (Vasopressin V1a receptor): > 10 µM
7 | CCCCCCCC(=O)N[C@H](CN1CCCC1)[C@H](O)c1ccc2c(c1)OCCO2 |  |  |  |  |  |  | AC50 (Adenosine receptor A1 [7]): > 30 µM
8 | COC(=O)C1=C(C)NC(C)=C(C(=O)O[C@H]2CCN(Cc3ccccc3)C2)[C@H]1c1cccc([N+](=O)[O-])c1 [BARNIDIPINE] |  |  |  |  |  | 4.07 | 
9 | O=C(NC(Cc1cc(=O)[nH]c2ccccc12)C(=O)O)c1ccc(Cl)cc1 (centres undefined) [REBAMIPIDE] |  |  |  |  |  | > 30 | 
10 | Cc1onc(-c2c(Cl)cccc2Cl)c1C(=O)N[C@@H]1C(=O)N2[C@@H]1SC(C)(C)[C@@H]2C(=O)O [DICLOXACILLIN] |  |  |  |  |  | > 30 | 
11 | CO[C@H]1[C@@H](O)C[C@H](O[C@H]2[C@@H](O)C[C@H](O[C@H]3[C@@H](O)C[C@H](O[C@H]4CC[C@@]5(C)[C@H](CC[C@@H]6[C@@H]5C[C@@H](O)[C@]5(C)[C@@H](C7=CC(=O)OC7)CC[C@]65O)C4)O[C@@H]3C)O[C@@H]2C)O[C@@H]1C [METILDIGOXIN] |  |  |  |  |  | > 30 | 
12 | C#C[C@]1(O)CC[C@H]2[C@@H]3CCc4cc(OC)ccc4[C@H]3CC[C@@]21C [MESTRANOL] | > 10 | > 10 | > 30 | > 10 | > 10 |  | 
13 | OCCN1CCN(CC/C=C2/c3ccccc3Sc3ccc(Cl)cc32)CC1 [ZUCLOPENTHIXOL] | > 10 | 6.4 | > 10 | > 10 | > 10 |  | AC50 (Vasopressin V1a receptor): > 10 µM
14 | CNCCCC1c2ccccc2C=Cc2ccccc21 [PROTRIPTYLINE] | > 10 | > 10 | > 10 | > 10 | > 10 |  | AC50 (Vasopressin V1a receptor): > 10 µM
15 | CCC(=O)O[C@@H]1CC(=O)O[C@H](C)C/C=C/C=C/[C@H](OC(C)=O)[C@H](C)C[C@H](CC=O)[C@H](O[C@@H]2O[C@H](C)[C@@H](O[C@H]3C[C@@](C)(OC(C)=O)[C@@H](OC(=O)CC)[C@H](C)O3)[C@H](N(C)C)[C@H]2O)[C@H]1OC [MIOCAMYCIN] |  |  |  |  |  |  | AC50 (Adenosine receptor A1 [7]): > 30 µM
16 | O=c1oc2ccccc2c(O)c1Cc1c(O)c2ccccc2oc1=O [DICUMAROL] | > 10 | > 10 | > 10 | > 10 | > 10 |  | 
17 | O=C(CCCN1CC=C(n2c(=O)[nH]c3ccccc32)CC1)c1ccc(F)cc1 [DROPERIDOL] |  |  |  |  |  |  | AC50 (Adenosine receptor A1 [7]): > 30 µM
18 | N[C@@H](Cc1c[nH]c2ccc(O)cc12)C(=O)O [OXITRIPTAN] |  |  |  |  |  | > 30 | 
19 | CNC(=O)C[C@@H](N)C(=O)N[C@@H](C(=O)N[C@@H]1C(=O)N2[C@@H]1SC(C)(C)[C@@H]2C(=O)O)c1ccc(O)cc1 [ASPOXICILLIN] |  |  |  |  |  | > 30 | 
20 | CC(=O)O[C@H]1C[C@H](O[C@H]2[C@@H](O)C[C@H](O[C@H]3[C@@H](O)C[C@H](O[C@H]4CC[C@@]5(C)[C@H](CC[C@@H]6[C@@H]5C[C@@H](O)[C@]5(C)[C@@H](C7=CC(=O)OC7)CC[C@]65O)C4)O[C@@H]3C)O[C@@H]2C)O[C@H](C)[C@H]1O[C@@H]1O[C@H](CO)[C@@H](O)[C@H](O)[C@H]1O [LANATOSIDE C] |  |  |  |  |  | > 30 | 
21 | Nc1ncnc(Nc2ccc(Cl)cc2)n1 [CHLORAZANIL] |  |  |  |  |  | > 30 | 
22 | COc1cc([C@@H]2c3cc4c(cc3[C@@H](O[C@@H]3O[C@@H]5CO[C@@H](c6cccs6)O[C@H]5[C@H](O)[C@H]3O)[C@H]3COC(=O)[C@H]23)OCO4)cc(OC)c1O [TENIPOSIDE] |  |  |  |  |  | > 30 | 
23 | CCN(CC)CCOC(=O)C(Cc1cccc2ccccc12)CC1CCCO1 (centres undefined) [NAFRONYL] |  |  |  |  |  | 24.2 | 
24 | CC(=O)OC(C)OC(=O)C(C)c1ccc(-c2ccccc2)c(F)c1 (centres undefined) |  |  |  |  |  | > 30 | 
25 | C[C@H]1C[C@H]2[C@@H]3CCC4=CC(=O)C=C[C@]4(C)[C@@]3(Cl)[C@@H](O)C[C@]2(C)[C@@]1(O)C(=O)CO [BECLOMETHASONE] | > 10 |  | > 30 |  | > 10 |  | AC50 (Endothelin-1 receptor): > 30 µM; AC50 (Vasopressin V1a receptor): > 10 µM
26 | CC1(C)S[C@@H]2[C@H](NC(=O)[C@H](NC(=O)N3CCN(S(C)(=O)=O)C3=O)c3ccccc3)C(=O)N2[C@H]1C(=O)O [MEZLOCILLIN] |  |  |  |  |  | > 30 | 

Reference: ChEMBL document CHEMBL5291721, “A preclinical secondary pharmacology resource illuminates target-adverse drug reaction associations of marketed drugs” (Nat Commun, 2023)
